Common to all, as to format: in vivo
For series [1], the system named is eggs of the cabbage root fly (Erioischia brassicae). Description: Egg hatch of cabbage root fly eggs in test solution. To be noted: Table 4; eggs stored six days, egg hatch counted, two replicates; 8640 min. An excerpt:
This example illustrates the activity of compounds of the invention against the eggs of the cabbage root fly (Erioischia brassicae).
The eggs were then stored for six days and the egg hatch then counted.

In series [2] the test system is aphid Megoura viciae. Nature of the series: Aphids on sprayed broad bean plants. To be noted: Table 6; sprayed infested broad bean plants, 24 hours. As for the experimental part:
Broad bean plants 3 to 5 cm. high were infested with aphids and then sprayed with an aqueous dispersion containing varying concentrations of test compound. Each plant was kept under a lamp glass for 24 hours and then examined. In this way an LD50 value for the compounds was calculated.

Series [3] has as its system larvae of the diamond back moth (Plutella maculipennis). Nature of the series: Mortality of larvae of the diamond back moth on treated cabbage leaf. Particulars: for ACTIVITY LD50: Table 1, cabbage leaf dipped in test solution, mortality after 24 + 24 hours, two replicates; for ACTIVITY LD50 / Plutella maculipennis LD50 values: 2880 min; for Plutella maculipennis LD50 values: Table 2, comparative 1,2,4-triazoles, method of Example 9; for LC50: Plutella, 48 h, read-out: Plutella maculipennis LD50 values. As for the experimental part:
Ten larvae were placed in a tube together with a square inch of cabbage leaf which had been dipped in the test solution and allowed to dry. After twenty-four hours untreated cabbage was added for food and after a further twenty-four hours an assessment was made of the mortality of the larvae.
Two replicates were carried out for each test compound and test solutions of varying concentrations employed so that an LD50 value could be calculated.

The source of these data is patent US4255435A, “Triazole compounds” (priority 1980, dated 1981).

≈ marks a conversion by molar mass, not a printed value.

With “1(2)-N,N-dimethylcarbamoyl-3-isopropyl-5-(2-bromoallylthio)-1,2,4-triazole [methyl methyl isopropyl 2-bromoallyl]”, the “ACTIVITY LD50” value in series [1] is 0.9 p.p.m.

“1(2)-N,N-dimethylcarbamoyl-3-isopropyl-5-(2-chloroallylthio)-1,2,4-triazole [methyl methyl isopropyl 2-chloroallyl]”: the “ACTIVITY LD50” value in series [1] is 0.27 p.p.m; in series [2], 1.2 p.p.m.

Regarding “1(2)-N,N-dimethylcarbamoyl-3-isopropyl-5-vinylthio-1,2,4-triazole [methyl methyl isopropyl vinyl]”, in series [3], the “ACTIVITY LD50” value is reported as below 25 p.p.m.

“1(2)-N,N-dimethylcarbamoyl-3-s-butyl-5-(2-chloroallylthio)-1,2,4-triazole [methyl methyl s-butyl 2-chloroallyl]”: in series [1], the “ACTIVITY LD50” value is on record as 0.8 p.p.m.

Consider “1(2)-N,N-dimethylcarbamoyl-3-s-butyl-5-prop-2-ynylthio-1,2,4-triazole [methyl methyl s-butyl prop-2-ynyl]”, for which the “ACTIVITY LD50” value in series [3] is recorded as 270 p.p.m.

For the compound “1(2)-N,N-dimethylcarbamoyl-3-s-butyl-5-vinylthio-1,2,4-triazole [methyl methyl s-butyl vinyl]”, the “ACTIVITY LD50” value in series [3] is on record as 160 p.p.m.

On to “1(2)-N-ethyl-N-methylcarbamoyl-3-t-butyl-5-prop-2-ynylthio-1,2,4-triazole [ethyl methyl t-butyl prop-2-ynyl]”, for which the “ACTIVITY LD50” value in series [3] was 68 p.p.m.

Consider “1(2)-N-methyl-N-n-butylcarbamoyl-3-methylthio-5-methyl-1,2,4-triazole”, for which the “Plutella maculipennis LD50 values” in series [3] was above 5000 p.p.m.

For “1(2)-diallylcarbamoyl-3-ethylthio-5-methyl-1,2,4-triazole”, in series [3], the “Plutella maculipennis LD50 values” is above 5000 p.p.m.

Take “1(2)-diethylcarbamoyl-3-methylthio-5-methyl-1,2,4-triazole”: in series [3], the “Plutella maculipennis LD50 values” was above 5000 p.p.m.

Consider “1(2)-dimethlcarbamoyl-3-ethylthio-5-methyl-1,2,4-triazole”, for which, in series [3], the “Plutella maculipennis LD50 values” came to 1600 p.p.m.

With “1(2)-pyrrolidinocarbonyl-3-methylthio-5-methyl-1,2,4-triazole”, the “Plutella maculipennis LD50 values” in series [3] is on record as above 5000 p.p.m.

With “2(2)-dimethylthiocarbamoyl-3-methylthio-5-methyl-1,2,4-triazole”, the “Plutella maculipennis LD50 values” in series [3] is listed as above 5000 p.p.m.

Consider `CC1CCN(C(=O)n2cncn2)CC1` [1-(4-methylpiperidinocarbonyl)-1,2,4-triazole], for which the LC50 in series [3] is above 5000 µg/mL.

With `CCSc1ncn(C(=O)N(CC#N)CC#N)n1` [1-di(cyanomethyl)carbamoyl-3-ethylthio-1,2,4-triazole], the LC50 in series [3] was above 5000 µg/mL.

For the compound `C=CCN(CC=C)C(=O)n1cnc(SCCN(CC)CC)n1` [1-diallylcarbamoyl-3-(2-diethylaminoethylthio)-1,2,4-triazole], the LC50 in series [3] is above 5000 µg/mL.

On to `C=CCN(CC=C)C(=O)n1cnc(SCC(=O)OC)n1` [1-diallylcarbamoyl-3-methoxycarbonylmethylthio-1,2,4-triazole], for which, in series [3], the LC50 was above 5000 µg/mL.

Consider `CN(C)C(=O)n1cncn1` [1-dimethylcarbamoyl-1,2,4-triazole], for which, in series [3], the LC50 came out at 1250 µg/mL (≈ 8.92 mM).

In the case of `Cc1nc(C)n(C(=O)N(C)C)n1` [1-dimethylcarbamoyl-3,5-dimethyl-1,2,4-triazole], in series [3], the LC50 was above 5000 µg/mL.

With `CN(C)C(=O)n1cnc(SSc2ncn(C(=O)N(C)C)n2)n1` [1-dimethylcarbamoyl-3-(1-dimethylcarbamoyl-1,2,4-triazole-3-yldithio)-1,2,4,-triazole], the LC50 in series [3] was above 5000 µg/mL.

`CN(C)C(=O)n1cnc(Sc2ccc([N+](=O)[O-])cc2[N+](=O)[O-])n1` [1-dimethylcarbamoyl-3-(2,4-dinitrophenylthio)-1,2,4-triazole]: the LC50 in series [3] is above 5000 µg/mL.

Take `Cc1nc(SCc2ccccc2)nn1C(=O)N(C)C` [1-dimethylcarbamoyl-3-benzylthio-5-methyl-1,2,4-triazole]: the LC50 in series [3] was above 5000 µg/mL.

`CN(C)C(=O)n1cnc(Br)n1` [1-dimethylcarbamoyl-3-bromo-1,2,4-triazole]: the LC50 in series [3] is above 5000 µg/mL.

Consider `CN(C)C(=O)n1cnc(Cl)n1` [1-dimethylcarbamoyl-3-chloro-1,2,4-triazole], for which the LC50 in series [3] was above 5000 µg/mL.

For the compound `CN(C)C(=O)n1cnc(SC2CCCCC2)n1` [1-dimethylcarbamoyl-3-cyclohexylthio-1,2,4-triazole], in series [3], the LC50 is above 5000 µg/mL.

As to `CCCCCCCCCCCCSc1ncn(C(=O)N(C)C)n1` [1-dimethylcarbamoyl-3-dodecylthio-1,2,4-triazole], in series [3], the LC50 was above 5000 µg/mL.

As for `CCCCCCCCCCCCSc1nc(C)n(C(=O)N(C)C)n1` [1-dimethylcarbamoyl-3-dodecylthio-5-methyl-1,2,4-triazole], the LC50 in series [3] was above 5000 µg/mL.

As for `CCOC(=O)CSc1nc(C)n(C(=O)N(C)C)n1` [1-dimethylcarbamoyl-3-ethoxycarbonylmethylthio-5-methyl-1,2,4-triazole], the LC50 in series [3] is above 5000 µg/mL.

Consider `CCc1nc(SC)n(C(=O)N(C)C)n1` [1-dimethylcarbamoyl-3-ethyl-5-methylthio-1,2,4-triazole], for which the LC50 in series [3] was 1900 µg/mL (≈ 8.87 mM).

As to `Cc1ncn(C(=O)N(C)C)n1` [1-dimethylcarbamoyl-3-methyl-1,2,4-triazole], the LC50 in series [3] was above 5000 µg/mL.

In the case of `CSc1nc(C)nn1C(=O)N(C)C` [1-dimethylcarbamoyl-3-methyl-5-methylthio-1,2,4-triazole], the LC50 in series [3] stood at 2200 µg/mL (≈ 11 mM).

On to `CSc1ncn(C(=O)N(C)C)n1` [1-dimethylcarbamoyl-3-methylthio-1,2,4-triazole], for which, in series [3], the LC50 turned out to be 2300 µg/mL (≈ 12.3 mM).

Take `CCCCCCSc1ncn(C(=O)N(C)C)n1` [1-dimethylcarbamoyl-3-n-hexylthio-1,2,4-triazole]: the LC50 in series [3] was above 5000 µg/mL.

For `Cc1nc(Sc2ccc([N+](=O)[O-])cc2)nn1C(=O)N(C)C` [1-dimethylcarbamoyl-3-p-nitrophenylthio-5-methyl-1,2,4-triazole], the LC50 in series [3] is above 5000 µg/mL.

Turning to `CSc1nc(-c2ccccc2)nn1C(=O)N(C)C` [1-dimethylcarbamoyl-3-phenyl-5-methylthio-1,2,4-triazole], the LC50 in series [3] was above 5000 µg/mL.

As to `CCCCCCCCCCCc1nc(SC)n(C(=O)N(C)C)n1` [1-dimethylcarbamoyl-3-undecyl-5-methylthio-1,2,4-triazole], the LC50 in series [3] was above 5000 µg/mL.

As to `C=C(Br)CSc1nc(C(C)(C)C)nn1C(=O)N(C)C` [methyl methyl t-butyl 2-bromoallyl, 1(2)-N,N-dimethylcarbamoyl-3-t-butyl-5-(2-bromoallylthio)-1,2,4-triazole], the figures for the “ACTIVITY LD50” value in series [1] and in series [2] were 0.57 p.p.m and 0.66 p.p.m, respectively.

As to `C=C(Cl)CSc1nc(C(C)(C)C)nn1C(=O)N(C)C` [methyl methyl t-butyl 2-chloroallyl, 1(2)-N,N-dimethylcarbamoyl-3-t-butyl-5-(2-chloroallylthio)-1,2,4-triazole], the “ACTIVITY LD50” value in series [1] came out at 0.22 p.p.m; in series [2], 1.6 p.p.m.
